Results reported in PMC5034277, “High Fructose Diet inducing diabetes rapidly impacts olfactory epithelium and behavior in mice” (Scientific Reports, 2016).

Molecular target: T1, MOR23 (Mus musculus, UniProt Q62007)
T1 construct: gene Or10j5; native full-length receptor in GFP-labelled olfactory sensory neurons of gene-targeted MOR23-IRES-tauEGFP mice, intact epithelium; untagged (IRES reporter)
T1 sequence (Q62007 1-309): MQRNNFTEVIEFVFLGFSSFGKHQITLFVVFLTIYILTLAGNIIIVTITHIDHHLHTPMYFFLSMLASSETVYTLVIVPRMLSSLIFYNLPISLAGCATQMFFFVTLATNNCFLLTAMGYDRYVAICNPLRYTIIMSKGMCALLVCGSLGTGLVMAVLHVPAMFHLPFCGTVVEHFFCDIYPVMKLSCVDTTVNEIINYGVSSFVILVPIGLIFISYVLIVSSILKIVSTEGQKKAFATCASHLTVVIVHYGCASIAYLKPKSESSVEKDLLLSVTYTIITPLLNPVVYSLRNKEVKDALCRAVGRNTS
Assay: perforated patch-clamp of dendritic knob, peak transduction current, Hill fit
Format: cell-based
Details: neurons of control-diet mice; holding -67 mV; Ringer pH 7.6; pressure-delivered odorant; whole-neuron transduction read-out; read-out: K1/2

CC(C)(O)CCCC1=CCC(C=O)CC1 (stereo not shown) [Lyral]
EC50: 3 ± 1 µM
